Reference: patent publication US20250228239A1, “MOLECULES HAVING PESTICIDAL UTILITY, AND INTERMEDIATES, COMPOSITIONS, AND PROCESSES, RELATED THERETO” (priority 2024, published 2025)

Assays:
[1] = test system: Cabbage Looper (Trichoplusia ni, TRIPNI); assay: Bioassays on Cabbage Looper (CL), 128-well diet tray assay; type: in vivo; details: Trichoplusia ni; Table ABC: Biological Results; species CL; read-out: CL
Procedure: (§1) Certain molecules disclosed in this document were tested against BAW and CL using procedures described in the following examples. In the reporting of the results, the “BAW & CL Rating Table” was used (See Table Section).
Bioassays on CL were conducted using a 128-well diet tray assay. One to five second instar CL larvae were placed in each well (3 mL) of the diet tray that had been previously filled with 1 mL of artificial diet to which 50 μg/cm^2 of the test molecule (dissolved in 50 μL of 90:10 acetone-water mixture) had been applied (to each of eight wells) and then allowed to dry. Trays were covered with a clear self-adhesive cover, vented to allow gas exchange, and held at 25° C., 14:10 light-dark for five to seven days. Percent mortality was recorded for the larvae in each well; activity in the eight wells was then averaged. The results are indicated in the table entitled “Table ABC: Biological Results” (See Table Section).

[2] = test system: Beet Armyworm (Spodoptera exigua, LAPHEG); assay: Bioassays on Beet Armyworm (BAW), 128-well diet tray assay; type: in vivo; details: Spodoptera exigua; Table ABC: Biological Results; species BAW; read-out: BAW
Procedure: as §1
Bioassays on BAW were conducted using a 128-well diet tray assay. One to five second instar BAW larvae were placed in each well (3 mL) of the diet tray that had been previously filled with 1 mL of artificial diet to which 50 μg/cm^2 of the test molecule (dissolved in 50 μL of 90:10 acetone-water mixture) had been applied (to each of eight wells) and then allowed to dry. Trays were covered with a clear self-adhesive cover, vented to allow gas exchange, and held at 25° C., 14:10 light-dark for five to seven days. Percent mortality was recorded for the larvae in each well; activity in the eight wells was then averaged. The results are indicated in the table entitled “Table ABC: Biological Results” (See Table Section).

## CC(=O)Nc1c(C)ccc(NC(=O)c2cc(NC(=O)[C@H]3[C@H](c4cc(Cl)cc(Cl)c4)C3(Cl)Cl)ccc2Cl)c1C (relative stereo) [F1128, trans-N-(3-Acetamido-2,4-dimethylphenyl)-2-chloro-5-(2,2-dichloro-3-(3,5-dichlorophenyl)cyclopropane-1-carboxamido)benzamide]
[1]
  pest or weed control at 50 µg/cm2: 50 to 100%
[2]
  pest or weed control at 50 µg/cm2: 50 to 100%

## O=C(Nc1cc(F)c(NC(=O)C(Cl)(Cl)Cl)c(F)c1)c1cc(NC(=O)[C@H]2[C@H](c3ccc(Cl)c(Cl)c3)C2(Cl)Cl)ccc1Cl (relative stereo) [F1146, trans-2-Chloro-5-(2,2-dichloro-3-(3,4-dichlorophenyl)cyclopropane-1-carboxamido)-N-(3,5-difluoro-4-(2,2,2-trichloroacetamido)phenyl)benzamide]
[1]
  pest or weed control at 50 µg/cm2: 50 to 100%
[2]
  pest or weed control at 50 µg/cm2: 50 to 100%

## O=C(Nc1ccc(F)cc1F)c1cc(NC(=O)[C@H]2[C@@H](c3cc(Cl)c(Cl)c(C(F)(F)F)c3)C2(Cl)Cl)ccc1Cl (relative stereo) [F1148, cis-2-Chloro-5-(2,2-dichloro-3-(3,4-dichloro-5-(trifluoromethyl)phenyl)cyclopropane-1-carboxamido)-N-(2,4-difluorophenyl)benzamide]
[1]
  pest or weed control at 50 µg/cm2: 50 to 100%
[2]
  pest or weed control at 50 µg/cm2: 50 to 100%

## Cc1cc(NC(=O)[C@H]2[C@H](c3ccc(F)c(Cl)c3)C2(Cl)Cl)cc(C(=O)Nc2ccc(F)c(N)c2F)c1F (relative stereo) [F1151, trans-N-(3-Amino-2,4-difluorophenyl)-5-(2,2-dichloro-3-(3-chloro-4-fluorophenyl)cyclopropane-1-carboxamido)-2-fluoro-3-methylbenzamide]
[1]
  pest or weed control at 50 µg/cm2: 50 to 100%
[2]
  pest or weed control at 50 µg/cm2: 50 to 100%

## Nc1c(F)ccc(NC(=O)c2cc(NC(=O)[C@H]3[C@H](c4ccc(F)c(Cl)c4)C3(Cl)Cl)cc(F)c2Cl)c1F (relative stereo) [F1156, trans-N-(3-Amino-2,4-difluorophenyl)-2-chloro-5-(2,2-dichloro-3-(3-chloro-4-fluorophenyl)cyclopropane-1-carboxamido)-3-fluorobenzamide]
[1]
  pest or weed control at 50 µg/cm2: 50 to 100%
[2]
  pest or weed control at 50 µg/cm2: 50 to 100%

## Cc1cc(NCCC(N)=O)ccc1NC(=O)c1cc(NC(=O)[C@H]2[C@H](c3cc(Cl)cc(Cl)c3)C2(Cl)Cl)ccc1Cl (relative stereo) [F1158, trans-N-(4-((3-Amino-3-oxopropyl)amino)-2-methylphenyl)-2-chloro-5-(2,2-dichloro-3-(3,5-dichlorophenyl)cyclopropane-1-carboxamido)benzamide]
[1]
  pest or weed control at 50 µg/cm2: 50 to 100%
[2]
  pest or weed control at 50 µg/cm2: 50 to 100%

## COCCN(C(=O)OC(C)(C)C)c1ccc(NC(=O)c2cc(NC(=O)[C@H]3[C@H](c4cc(Cl)cc(Cl)c4)C3(Cl)Cl)ccc2Cl)c(C)c1 (relative stereo) [F1159, trans-tert-Butyl-(4-(2-chloro-5-(2,2-dichloro-3-(3,5-dichlorophenyl)cyclopropane-1-carboxamido)benzamido)-3-methylphenyl)(2-methoxyethyl)carbamate]
[1]
  pest or weed control at 50 µg/cm2: 50 to 100%
[2]
  pest or weed control at 50 µg/cm2: 50 to 100%

## Cc1cc(NCc2ccc(C(F)(F)F)cc2)ccc1NC(=O)c1cc(NC(=O)[C@H]2[C@H](c3cc(Cl)cc(Cl)c3)C2(Cl)Cl)ccc1Cl (relative stereo) [F1165, trans-2-Chloro-5-(2,2-dichloro-3-(3,5-dichlorophenyl)cyclopropane-1-carboxamido)-N-(2-methyl-4-((4-(trifluoromethyl)benzyl)amino)phenyl)benzamide]
[1]
  pest or weed control at 50 µg/cm2: 50 to 100%
[2]
  pest or weed control at 50 µg/cm2: 50 to 100%

## Nc1c(F)ccc(NC(=O)c2cc(NC(=O)[C@H]3[C@@H](c4cc(F)c(Cl)c(C(F)(F)F)c4)C3(Cl)Cl)ccc2Cl)c1F (relative stereo) [F1168, cis-N-(3-Amino-2,4-difluorophenyl)-2-chloro-5-(2,2-dichloro-3-(4-chloro-3-fluoro-5-(trifluoromethyl)phenyl)cyclopropane-1-carboxamido)benzamide]
[1]
  pest or weed control at 50 µg/cm2: 50 to 100%
[2]
  pest or weed control at 50 µg/cm2: 50 to 100%

## COc1c(F)ccc(NC(=O)c2cc(NC(=O)[C@H]3[C@H](c4cc(Cl)cc(Cl)c4)C3(Cl)Cl)ccc2Cl)c1F (relative stereo) [F1171, trans-2-chloro-5-(2,2-dichloro-3-(3,5-dichlorophenyl)cyclopropane-1-carboxamido)-N-(2,4-difluoro-3-methoxyphenyl)benzamide]
[1]
  pest or weed control at 50 µg/cm2: 50 to 100%
[2]
  pest or weed control at 50 µg/cm2: 50 to 100%

## Cc1cc(NCCc2ccccc2)ccc1NC(=O)c1cc(NC(=O)[C@H]2[C@H](c3cc(Cl)cc(Cl)c3)C2(Cl)Cl)ccc1Cl (relative stereo) [F1177, trans-2-Chloro-5-(2,2-dichloro-3-(3,5-dichlorophenyl)cyclopropane-1-carboxamido)-N-(2-methyl-4-(phenethylamino)phenyl)benzamide]
[1]
  pest or weed control at 50 µg/cm2: 50 to 100%
[2]
  pest or weed control at 50 µg/cm2: 50 to 100%

## Cc1cc(NCC(C)c2ccccc2)ccc1NC(=O)c1cc(NC(=O)[C@H]2[C@H](c3cc(Cl)cc(Cl)c3)C2(Cl)Cl)ccc1Cl (relative stereo) [F1178, trans-2-Chloro-5-(2,2-dichloro-3-(3,5-dichlorophenyl)cyclopropane-1-carboxamido)-N-(2-methyl-4-((2-phenylpropyl)amino)phenyl)benzamide]
[1]
  pest or weed control at 50 µg/cm2: 50 to 100%
[2]
  pest or weed control at 50 µg/cm2: 50 to 100%

## O=C(Nc1ccccc1)c1cc(NC(=O)[C@H]2[C@H](c3ccc(F)c(Cl)c3)C2(Cl)Cl)cc(Cl)c1F (relative stereo) [F1194, trans-3-Chloro-5-(2,2-dichloro-3-(3-chloro-4-fluorophenyl)cyclopropane-1-carboxamido)-2-fluoro-N-phenylbenzamide]
[1]
  pest or weed control at 50 µg/cm2: 50 to 100%
[2]
  pest or weed control at 50 µg/cm2: 50 to 100%

## O=C(Nc1ccc(F)cc1)c1cc(NC(=O)[C@H]2[C@H](c3ccc(F)c(Cl)c3)C2(Cl)Cl)cc(Cl)c1F (relative stereo) [F1195, trans-3-Chloro-5-(2,2-dichloro-3-(3-chloro-4-fluorophenyl)cyclopropane-1-carboxamido)-2-fluoro-N-(4-fluorophenyl)benzamide]
[1]
  pest or weed control at 50 µg/cm2: 50 to 100%
[2]
  pest or weed control at 50 µg/cm2: 50 to 100%

## O=C(Nc1ccc(F)cc1F)c1cc(NC(=O)[C@H]2[C@H](c3ccc(F)c(Cl)c3)C2(Cl)Cl)cc(Cl)c1F (relative stereo) [F1196, trans-3-Chloro-5-(2,2-dichloro-3-(3-chloro-4-fluorophenyl)cyclopropane-1-carboxamido)-N-(2,4-difluorophenyl)-2-fluorobenzamide]
[1]
  pest or weed control at 50 µg/cm2: 50 to 100%
[2]
  pest or weed control at 50 µg/cm2: 50 to 100%

## CC(=O)Nc1ccc(NC(=O)c2cc(NC(=O)[C@H]3[C@H](c4ccc(F)c(Cl)c4)C3(Cl)Cl)cc(Cl)c2F)cc1 (relative stereo) [F1197, trans-N-(4-Acetamidophenyl)-3-chloro-5-(2,2-dichloro-3-(3-chloro-4-fluorophenyl)cyclopropane-1-carboxamido)-2-fluorobenzamide]
[1]
  pest or weed control at 50 µg/cm2: 50 to 100%
[2]
  pest or weed control at 50 µg/cm2: 50 to 100%

## Cc1cc(NC(=O)CCCN)ccc1NC(=O)c1cc(NC(=O)[C@H]2[C@H](c3ccc(Cl)c(Cl)c3)C2(Cl)Cl)ccc1Cl (relative stereo) [F1202, trans-N-(4-(4-Aminobutanamido)-2-methylphenyl)-2-chloro-5-(2,2-dichloro-3-(3,4-dichlorophenyl)cyclopropane-1-carboxamido)benzamide]
[1]
  pest or weed control at 50 µg/cm2: 50 to 100%
[2]
  pest or weed control at 50 µg/cm2: 50 to 100%

## O=C(Nc1ccc(F)c(O)c1F)c1cc(NC(=O)[C@H]2[C@H](c3cc(Cl)cc(Cl)c3)C2(Cl)Cl)ccc1Cl (relative stereo) [F1203, trans-2-chloro-5-(2,2-dichloro-3-(3,5-dichlorophenyl)cyclopropane-1-carboxamido)-N-(2,4-difluoro-3-hydroxyphenyl)benzamide]
[1]
  pest or weed control at 50 µg/cm2: 50 to 100%
[2]
  pest or weed control at 50 µg/cm2: 0 to 50%

## O=C(Nc1ccccc1)c1cc(NC(=O)[C@H]2[C@H](c3ccc(F)c(Cl)c3)C2(Cl)Cl)cc(F)c1F (relative stereo) [F1207, trans-5-(2,2-Dichloro-3-(3-chloro-4-fluorophenyl)cyclopropane-1-carboxamido)-2,3-difluoro-N-phenylbenzamide]
[1]
  pest or weed control at 50 µg/cm2: 50 to 100%
[2]
  pest or weed control at 50 µg/cm2: 50 to 100%

## O=C(Nc1ccc(F)cc1)c1cc(NC(=O)[C@H]2[C@H](c3ccc(F)c(Cl)c3)C2(Cl)Cl)cc(F)c1F (relative stereo) [F1208, trans-5-(2,2-Dichloro-3-(3-chloro-4-fluorophenyl)cyclopropane-1-carboxamido)-2,3-difluoro-N-(4-fluorophenyl)benzamide]
[1]
  pest or weed control at 50 µg/cm2: 50 to 100%
[2]
  pest or weed control at 50 µg/cm2: 50 to 100%

## O=C(Nc1ccc(F)cc1F)c1cc(NC(=O)[C@H]2[C@H](c3ccc(F)c(Cl)c3)C2(Cl)Cl)cc(F)c1F (relative stereo) [F1209, trans-5-(2,2-Dichloro-3-(3-chloro-4-fluorophenyl)cyclopropane-1-carboxamido)-N-(2,4-difluorophenyl)-2,3-difluorobenzamide]
[1]
  pest or weed control at 50 µg/cm2: 50 to 100%
[2]
  pest or weed control at 50 µg/cm2: 50 to 100%
